Experimental findings from article PMC6651094, “A Ligand-Based Virtual Screening Method Using Direct Quantification of Generalization Ability” (Molecules, 2019) are described below.

Each structure is given as a SMILES string.

This experiment has as its target T1, HIV-1 integrase multimerization (Human immunodeficiency virus type 1 group M subtype B, UniProt P12497).
T1 construct: His-tagged and FLAG-tagged integrase (donated by professor Mamuka Kvaratskhelia); gift of Prof; Mamuka Kvaratskhelia (University of Colorado Denver Anschutz Medical Campus)
As to the kind of experiment: HTRF assay validating activators of HIV-1 integrase multimerization (in vitro binding assay). The class given is biochemical. Particulars: His-tagged and FLAG-tagged integrase 20 nM each; time-resolved FRET; 8-point 1:3 dilution from 53.7 μM, triplicate; active when EC50 < 5 µM. The procedure:
An assay was carried out as previously described to experimentally validate the compounds [45] identified by LBS as activators of HIV-1 integrase multimerization. Briefly, His-tagged and FLAG-tagged integrase (donated by professor Mamuka Kvaratskhelia at university of Colorado Denver Anschutz Medical Campus) were separately prepared with final concentration of 20 nM. An antibody mixture was prepared with 1.25 μg/mL of anti-6xHis-XL665 antibody (Cisbio) and 58 ng/mL of anti-FLAG-EuCryptate antibody (Cisbio), respectively, in Tris-HCl buffer. His-tagged and FLAG-tagged Integrase were mixed in 25 mM Tris-HCl (pH 7.4) buffer containing 150 mM NaCl, 2 mM MgCl2, 0.1% Nonidet P40, and 1 mg/mL BSA. 35 μL of integrase mixture was added to each well. Next, 270 nL of compounds (each in triplicate using 8-point 1:3 dilution series starting at a maximum nominal test concentration of 53.7 μM) were distributed to appropriate wells. Dimethyl sulfoxide was used as low-control, and BIB-II (donated by professor Mamuka Kvaratskhelia at university of Colorado Denver Anschutz Medical Campus) was used as high-control reference compound. After 3 h of incubation, 15 μL of antibody mixture was added to the plates. After incubation at room temperature for 2.5 h, the time-resolved fluorescence energy transfer signal was measured by the microplate reader (SpectraMax M5, Molecular Devices, LLC., San Jose, CA, USA) by exciting the plates (384 well, Corning) at 340 nm and monitoring well fluorescence at 618 nm and 671 nm with the microplate reader. All the test compounds were bought from ChemDiv (San Diego, CA, USA).
Background: In TR-FRET formats the signal depends on donor and acceptor labels being close together.

On to `O=c1c2cc(O)c(O)cc2oc2cc(O)c(OC3OC(CO)C(O)C(O)C3O)c(O)c12` (stereo not shown) [compound 46397461], for which the EC50 – broadly, the concentration that produces a half-maximal response – turned out to be 1260 nM. The compound `O=C(NNC1OC(CO)C(O)C(O)C1O)c1ccc(O)cc1` (stereo not shown) [compound 4137880] returned an EC50 of 1260 nM. The result for `O=C(NN=Cc1ccccc1F)c1cc(O)c(O)c(O)c1` [compound 3656702] reads 4880 nM; that for `O=c1c(OC2OC(CO)C(O)C(O)C2O)c(-c2ccc(O)c(O)c2)oc2cc(O)cc(O)c12` (stereo not shown) [compound 5378597], 1360 nM; that for `COc1cccc(/C=N/Nc2nc3c(=O)[nH]c(N)nc3n2C2OC(CO)C(O)C2O)c1O` (stereo not shown) [Pubchem CID 135427812], 710 nM. The result for `COc1cccc(C=NNc2nc3c(=O)[nH]c(N)nc3n2C2OC(CO)C(O)C2O)c1O` (stereo not shown) [compound 135427812] reads 710 nM; that for `O=c1cc(-c2ccc(O)c(O)c2)oc2cc(OC3OC(CO)C(O)C(O)C3O)cc(O)c12` (stereo not shown) [compound 5291488], 3620 nM.
